How the values were obtained:
Settings in all cases: 72 h
Caco-2 [1] = test: cell viability relative to DMSO; higher = less toxic
Calu-3 [2] = test: as above
HepG2 [3] = test: as above
Vero E6 [4] = test: as above
Caco-2 [5] = test: relative viability EC50 (midpoint between 100% and the lowest measured viability); higher = less toxic
Calu-3 [6] = test: as above
HepG2 [7] = test: as above
Vero E6 [8] = test: as above
Caco-2 [9] = test: drug sensitivity score (DSS) for viability; higher = more toxic; extreme values may be limits of the assay
Calu-3 [10] = test: as above
HepG2 [11] = test: as above
Vero E6 [12] = test: as above
U2OS [13] = test: cell viability relative to DMSO; higher = less toxic
U2OS [14] = test: relative viability EC50 (midpoint between 100% and the lowest measured viability); higher = less toxic
U2OS [15] = test: drug sensitivity score (DSS) for viability; higher = more toxic; extreme values may be limits of the assay

Row | Compound | cell viability (Caco-2 [1]; 1 nM) [%] | cell viability (Caco-2 [1]; 10 nM) [%] | cell viability (Caco-2 [1]; 100 nM) [%] | cell viability (Caco-2 [1]; 1000 nM) [%] | cell viability (Caco-2 [1]; 10000 nM) [%] | cell viability (Calu-3 [2]; 1 nM) [%] | cell viability (Calu-3 [2]; 10 nM) [%] | cell viability (Calu-3 [2]; 100 nM) [%] | cell viability (Calu-3 [2]; 1000 nM) [%] | cell viability (Calu-3 [2]; 10000 nM) [%] | cell viability (HepG2 [3]; 1 nM) [%] | cell viability (HepG2 [3]; 10 nM) [%] | cell viability (HepG2 [3]; 100 nM) [%] | cell viability (HepG2 [3]; 1000 nM) [%] | cell viability (HepG2 [3]; 10000 nM) [%] | cell viability (Vero E6 [4]; 1 nM) [%] | cell viability (Vero E6 [4]; 10 nM) [%] | cell viability (Vero E6 [4]; 100 nM) [%] | cell viability (Vero E6 [4]; 1000 nM) [%] | cell viability (Vero E6 [4]; 10000 nM) [%] | relative viability EC50 (Caco-2 [5]) [µM] | relative viability EC50 (Calu-3 [6]) [µM] | relative viability EC50 (HepG2 [7]) [µM] | relative viability EC50 (Vero E6 [8]) [µM] | drug sensitivity score (Caco-2 [9]) | drug sensitivity score (Calu-3 [10]) | drug sensitivity score (HepG2 [11]) | drug sensitivity score (Vero E6 [12]) | cell viability (U2OS [13]; 1 nM) [%] | cell viability (U2OS [13]; 10 nM) [%] | cell viability (U2OS [13]; 100 nM) [%] | cell viability (U2OS [13]; 1000 nM) [%] | cell viability (U2OS [13]; 10000 nM) [%] | relative viability EC50 (U2OS [14]) [µM] | drug sensitivity score (U2OS [15])
1 | COc1cc(NC(=O)c2ccc(-c3ccc(Cl)cc3)o2)cc(OC)c1 | 108 | 98.9 | 107 | 102 | 98.1 | 121 | 103 | 109 | 101 | 99.3 | 105 | 109 | 91.9 | 114 | 102 | 94.5 | 101 | 97.2 | 97.6 | 101 | > 10 | > 10 | > 10 | > 10 | 0 | 0 | 0 | 0 |  |  |  |  |  |  | 
2 | CCN(CC)CC(=O)Nc1c(C)cccc1C [lidocaine] | 103 | 108 | 90.8 | 80.4 | 97 |  |  |  |  |  | 101 | 97.4 | 88.1 | 116 | 107 | 108 | 101 | 105 | 97.8 | 97.9 | > 10 |  | > 10 | > 10 | 3.6 |  | 0 | 0 | 99.7 | 105 | 94.8 | 97.2 | 100 | > 10 | 0
3 | Cc1noc2c1-c1ccccc1C(c1ccc(Cl)cc1)=N[C@H]2CC(N)=O [CPI-0610] | 104 | 108 | 106 | 94.5 | 80.6 | 103 | 99.7 | 105 | 90 | 64.7 | 109 | 111 | 101 | 75.2 | 49.4 | 111 | 108 | 88.4 | 38.5 | 16.2 | > 10 |  | 1.02 | 0.449 | 1.2 | 3.2 | 5.9 | 13 | 105 | 108 | 97.3 | 84.1 | 47.6 | 1.42 | 5.1
4 | CO[C@@]1(NC(=O)CSCC#N)C(=O)N2C(C(=O)O)=C(CSc3nnnn3C)CS[C@@H]21 [cefmetazole] | 109 | 106 | 108 | 94.7 | 105 | 101 | 97.6 | 99.7 | 108 | 108 | 106 | 105 | 99.7 | 97.4 | 117 | 96.7 | 102 | 102 | 97.9 | 93.2 | > 10 | > 10 | > 10 | > 10 | 0 | 0 | 0 | 0 |  |  |  |  |  |  | 
5 | Cc1ccc(C(=O)Cn2c3c(sc2=N)CCCC3)cc1 [pifithrin-alpha] | 102 | 89.9 | 97.1 | 99.3 | 90.1 |  |  |  |  |  | 106 | 97.3 | 101 | 100 | 99 | 98.9 | 97.2 | 100 | 98.9 | 96.1 | > 10 |  | > 10 | > 10 | 0 |  | 0 | 0 | 96.6 | 97.5 | 92.9 | 94.4 | 93.5 | > 10 | 0
6 | COc1ccc(OC)c(CN(C(C)=O)c2cc(F)ccc2Oc2ccccc2)c1 [DAA-1106] | 93.4 | 112 | 93.1 | 108 | 71.4 | 103 | 102 | 93.7 | 98.5 | 98.1 | 102 | 105 | 99.2 | 95.7 | 96 | 102 | 99 | 103 | 107 | 101 |  | > 10 | > 10 | > 10 | 0.9 | 0 | 0 | 0 | 102 | 107 | 100 | 96.5 | 93.6 | > 10 | 0
7 | CCC(=O)N[C@@H]1Cc2ccccc2[C@H](c2ccccc2)C1 [4-P-PDOT] | 103 | 95.4 | 100 | 95.1 | 94.4 | 105 | 94.6 | 104 | 114 | 102 | 106 | 111 | 99 | 88.9 | 108 | 95.9 | 97.4 | 100 | 96.1 | 98.5 | > 10 | > 10 | > 10 | > 10 | 0 | 0 | 0 | 0 |  |  |  |  |  |  | 

Source: the supplement of paper PMC13380429
